Test results from patent publication US20080089860A1, “Therapeutic compositions and methods useful in treating cancer” (priority 2006, published 2008).

Experiments:
PRL-1 = molecular target: T1, PRL-1 (Homo sapiens, UniProt Q93096); test: In vitro PTPase assay, recombinant PRL-1; assay type: biochemical; settings: 0.1-100 μg/ml
T1 construct: made in house; host or cells: E. coli DH5a
Excerpt: (§1) Sodium stibogluconate, suramin, sodium orthovanadate and GST fusion protein of SHP-1 have been described previously (Pathak et al., J. Imumol. 167, 3391 (2001)). Meglumine antimonate was obtained from Aventis. cDNAs of human PRL-1, PRL-2 and PRL-3 coding region were derived by RT-PCR from H9 cells (Safai, et al., Lancet 1, 1438 (1984)) and inserted in frame into the pGEX vector. cDNA of PRL-1R86 was generated by recombinant DNA technique using PRL-1 cDNA as template following established procedures (Jiao, et al., Mol. Cell. Biol. 16, 6985 (1996)). […]
(§2) In vitro PTPase assays were used to determine the effects of compounds on recombinant PTPases, following established procedures using a synthetic phosphotyrosine peptide or DiFMUP as the substrate (Pathak et al., J. Imumol. 167, 3391 (2001)). […] PTPase activity of individual reactions was measured by adding 100 µL of malachite green solution (UBI) and then quantifying the amounts of free phosphate cleaved by the PTPase from the peptide substrate by spectrometry (OD660 nm). […] Relative PTPase activities were calculated based on the formula: (PTPase activity in the presence of an inhibitory compound/PTPase activity in the absence of the compound)× 100%. […]

PRL-2 = molecular target: T2, PRL-2 (Homo sapiens, UniProt Q12974); test: In vitro PTPase assay, recombinant PRL-2; assay type: biochemical
T2 construct: made in house; host or cells: E. coli DH5a
T2 sequence (Q12974 whole entry): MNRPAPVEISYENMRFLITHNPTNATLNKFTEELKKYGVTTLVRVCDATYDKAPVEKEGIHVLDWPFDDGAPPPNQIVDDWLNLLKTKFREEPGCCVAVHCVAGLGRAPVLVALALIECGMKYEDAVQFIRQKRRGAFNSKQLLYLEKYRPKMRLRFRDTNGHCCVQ
Excerpt: as §1, §2

[1] = system: WM9 transfectants (vector, PRL-1, PRL-1R86); test: Growth of WM9 transfectants, MTT assay; assay type: cell-based, human; settings: 50 or 100 μg/ml
Protocol: NIH3T3 (Yi, et al., Blood 85, 87 (1995)), WM9 (Forsberg, et al., Proc. Nat. Acad. Sci. USA 90, 393 (1993)), DU145 (Mickey, et al., Cancer Res. 37, 4049 (1977)), LoVo (Drewinko, et al., Cancer Res. 36, 467 (1976)), HEY (Buick, et al., Cancer Res. 45, 3668 (1985)), U251 (Yoshida, et al., Cancer 50, 410 (1982)), A549 (Giard, et al., J. Natl. Cancer Inst. 51, 1417 (1973)) and SK-N-SH (Helson, et al., Cancer Res. 35, 2594 (1975)) cell lines have been described and were cultured in RPMI 1640 supplemented with 10% fetal calf serum (FCS). For measurement of sodium stibogluconate effects on cell growth in vitro, cells were cultured in the absence (−) or presence (+) of various amounts of sodium stibogluconate for 6 days with viable cells quantified by MTT assays (Mosmann, J. Immunol. Methods 65, 55 (1983)). Percentages of growth inhibition by sodium stibogluconate were calculated (.+−.x %).
The effects of sodium stibogluconate on intracellular PTPases were assessed using NIH3T3 or WM9 transfectants. […]
To further assess whether expression of the PRL-1R86 mutant affects sodium stibogluconate-induced growth inhibition, the transfectants were cultured in the absence or presence of sodium stibogluconate for 6 days with viable cells determined by MTT assays. […]

T1 sequence (Q93096 whole entry): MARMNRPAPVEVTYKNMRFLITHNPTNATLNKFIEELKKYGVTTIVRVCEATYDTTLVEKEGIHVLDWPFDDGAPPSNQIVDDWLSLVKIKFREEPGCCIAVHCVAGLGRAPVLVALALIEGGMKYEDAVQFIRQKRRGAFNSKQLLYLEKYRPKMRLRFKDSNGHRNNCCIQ

| Structure (SMILES) | PRL-1 activity retained (PRL-1) | effectiveness against PRL-2 (PRL-2) | growth inhibition of R86 cells [1] |
| --- | --- | --- | --- |
| N=C(N)c1ccc(OCCCCCOc2ccc(C(=N)N)cc2)cc1 [pentamidine] | 70-80% | not effective |  |
| CC(=O)N1CCN(c2ccc(OCC3COC(Cn4ccnc4)(c4ccc(Cl)cc4Cl)O3)cc2)CC1 (centres unmarked) [ketoconazole] | 60-70% | not effective |  |
| O.O.O.O.O.O.O.O.O.O=C([O-])[C@@H]1[O][Sb]2([O-])([O][Sb]34([OH])[O][C@H]([C@H](O)CO)[C@H]([O]3)[C@H](C(=O)[O-])[O]4)[O][C@H]([C@H](O)CO)[C@@H]1[O]2.[Na+].[Na+].[Na+] [sodium stibogluconate] |  |  | only modest growth inhibition |
